The EC50 is the concentration needed to bring the measured effect to its halfway point.

Each structure is given as a SMILES string.

Format in all cases: cell-based
In assay [1] the target is T1, AgIR75k (Anopheles coluzzii, UniProt A0A6E8VT06).
T1 construct: with AgIr8a (co-receptor)
T1 sequence (A0A6E8VT06 26-675): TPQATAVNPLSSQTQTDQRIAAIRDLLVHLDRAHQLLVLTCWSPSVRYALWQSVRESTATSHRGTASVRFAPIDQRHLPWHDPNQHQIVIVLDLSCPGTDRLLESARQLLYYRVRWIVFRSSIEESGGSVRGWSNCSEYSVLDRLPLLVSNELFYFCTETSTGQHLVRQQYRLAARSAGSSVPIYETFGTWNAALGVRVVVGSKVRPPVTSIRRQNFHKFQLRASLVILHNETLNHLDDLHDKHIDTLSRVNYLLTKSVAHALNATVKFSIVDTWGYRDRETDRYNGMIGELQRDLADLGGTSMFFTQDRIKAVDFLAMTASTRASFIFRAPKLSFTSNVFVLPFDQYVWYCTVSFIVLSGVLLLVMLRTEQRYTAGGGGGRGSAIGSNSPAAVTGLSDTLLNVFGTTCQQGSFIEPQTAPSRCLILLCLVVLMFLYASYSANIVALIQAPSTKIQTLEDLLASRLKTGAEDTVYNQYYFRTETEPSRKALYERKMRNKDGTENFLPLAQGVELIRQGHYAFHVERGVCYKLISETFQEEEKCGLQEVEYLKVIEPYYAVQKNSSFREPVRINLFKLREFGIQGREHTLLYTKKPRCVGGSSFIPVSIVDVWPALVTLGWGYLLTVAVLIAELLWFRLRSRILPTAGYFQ
T1 sequence (A0A6E8W0A6 1-828 partner): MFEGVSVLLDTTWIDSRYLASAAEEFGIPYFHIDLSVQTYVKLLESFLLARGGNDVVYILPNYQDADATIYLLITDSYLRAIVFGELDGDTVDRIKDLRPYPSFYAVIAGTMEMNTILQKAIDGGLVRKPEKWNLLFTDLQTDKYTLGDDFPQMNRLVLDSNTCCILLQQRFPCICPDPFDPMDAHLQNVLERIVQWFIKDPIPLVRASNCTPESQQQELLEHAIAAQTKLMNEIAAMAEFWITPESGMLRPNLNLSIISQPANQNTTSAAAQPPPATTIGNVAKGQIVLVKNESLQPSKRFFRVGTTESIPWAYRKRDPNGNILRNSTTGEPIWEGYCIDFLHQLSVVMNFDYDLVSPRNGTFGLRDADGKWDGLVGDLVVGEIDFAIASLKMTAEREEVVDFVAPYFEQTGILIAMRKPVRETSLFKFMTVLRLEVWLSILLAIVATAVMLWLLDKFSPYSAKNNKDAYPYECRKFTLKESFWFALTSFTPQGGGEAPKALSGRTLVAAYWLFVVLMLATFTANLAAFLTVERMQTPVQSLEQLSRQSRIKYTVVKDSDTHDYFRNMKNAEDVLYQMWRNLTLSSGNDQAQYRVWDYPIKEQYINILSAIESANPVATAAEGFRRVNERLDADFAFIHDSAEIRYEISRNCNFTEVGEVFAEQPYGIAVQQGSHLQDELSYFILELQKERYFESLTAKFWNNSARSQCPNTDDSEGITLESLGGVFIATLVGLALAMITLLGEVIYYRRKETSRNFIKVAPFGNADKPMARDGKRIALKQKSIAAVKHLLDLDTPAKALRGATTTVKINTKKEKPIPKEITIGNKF
The assay can be described thus: two-electrode voltage clamp, Xenopus oocytes, concentration-response. (In general: Two-electrode voltage clamp holds a large cell at a set potential and records current.)

For the next assay, the target named is T2, AgIR41c (Anopheles coluzzii, UniProt A0A6E8W7H2).
T2 construct: with AgIr25a and AgIr76b (co-receptors)
T2 sequence (A0A6E8W7H2 1-669, one chain of several): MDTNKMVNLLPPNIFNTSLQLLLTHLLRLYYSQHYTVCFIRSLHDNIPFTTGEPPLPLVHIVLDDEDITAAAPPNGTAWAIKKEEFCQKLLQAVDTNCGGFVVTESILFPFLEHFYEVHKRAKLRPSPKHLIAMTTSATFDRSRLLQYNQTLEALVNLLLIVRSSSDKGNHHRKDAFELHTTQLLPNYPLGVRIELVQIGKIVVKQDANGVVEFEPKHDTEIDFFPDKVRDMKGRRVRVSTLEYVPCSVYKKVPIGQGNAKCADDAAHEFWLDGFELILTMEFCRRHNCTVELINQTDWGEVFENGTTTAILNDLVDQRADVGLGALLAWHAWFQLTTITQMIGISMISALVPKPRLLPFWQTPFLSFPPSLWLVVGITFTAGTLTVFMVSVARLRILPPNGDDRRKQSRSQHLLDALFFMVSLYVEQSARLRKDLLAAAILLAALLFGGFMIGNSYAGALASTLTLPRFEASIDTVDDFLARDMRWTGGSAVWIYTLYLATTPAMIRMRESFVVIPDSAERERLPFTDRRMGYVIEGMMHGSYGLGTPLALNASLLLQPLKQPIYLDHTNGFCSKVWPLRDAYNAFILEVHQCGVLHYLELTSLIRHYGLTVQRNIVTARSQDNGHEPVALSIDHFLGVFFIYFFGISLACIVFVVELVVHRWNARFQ
Described as above.

The next assay has as its target T3, AgIR41a (Anopheles coluzzii, UniProt A0A6E8V5R5).
T3 construct: with AgIr25a and AgIr76b (co-receptors)
T3 sequence (A0A6E8V5R5 1-637): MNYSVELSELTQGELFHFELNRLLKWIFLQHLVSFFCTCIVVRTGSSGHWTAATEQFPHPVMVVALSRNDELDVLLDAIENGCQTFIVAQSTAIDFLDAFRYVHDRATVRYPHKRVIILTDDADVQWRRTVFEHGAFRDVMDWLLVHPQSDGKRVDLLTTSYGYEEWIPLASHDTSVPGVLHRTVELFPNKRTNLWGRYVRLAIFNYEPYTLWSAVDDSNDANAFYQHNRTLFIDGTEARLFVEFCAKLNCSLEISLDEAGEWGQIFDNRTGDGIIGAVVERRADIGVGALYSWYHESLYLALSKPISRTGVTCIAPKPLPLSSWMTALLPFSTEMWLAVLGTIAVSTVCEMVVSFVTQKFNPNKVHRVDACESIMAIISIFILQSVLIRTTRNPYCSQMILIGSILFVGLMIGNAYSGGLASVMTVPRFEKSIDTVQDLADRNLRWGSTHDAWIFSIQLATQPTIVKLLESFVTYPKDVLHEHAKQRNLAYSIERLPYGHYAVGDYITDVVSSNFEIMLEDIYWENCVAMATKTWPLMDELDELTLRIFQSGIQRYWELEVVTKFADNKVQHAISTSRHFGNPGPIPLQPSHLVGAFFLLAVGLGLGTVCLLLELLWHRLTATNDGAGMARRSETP
T3 sequence (A0A1S4H3H9 28-946 partner): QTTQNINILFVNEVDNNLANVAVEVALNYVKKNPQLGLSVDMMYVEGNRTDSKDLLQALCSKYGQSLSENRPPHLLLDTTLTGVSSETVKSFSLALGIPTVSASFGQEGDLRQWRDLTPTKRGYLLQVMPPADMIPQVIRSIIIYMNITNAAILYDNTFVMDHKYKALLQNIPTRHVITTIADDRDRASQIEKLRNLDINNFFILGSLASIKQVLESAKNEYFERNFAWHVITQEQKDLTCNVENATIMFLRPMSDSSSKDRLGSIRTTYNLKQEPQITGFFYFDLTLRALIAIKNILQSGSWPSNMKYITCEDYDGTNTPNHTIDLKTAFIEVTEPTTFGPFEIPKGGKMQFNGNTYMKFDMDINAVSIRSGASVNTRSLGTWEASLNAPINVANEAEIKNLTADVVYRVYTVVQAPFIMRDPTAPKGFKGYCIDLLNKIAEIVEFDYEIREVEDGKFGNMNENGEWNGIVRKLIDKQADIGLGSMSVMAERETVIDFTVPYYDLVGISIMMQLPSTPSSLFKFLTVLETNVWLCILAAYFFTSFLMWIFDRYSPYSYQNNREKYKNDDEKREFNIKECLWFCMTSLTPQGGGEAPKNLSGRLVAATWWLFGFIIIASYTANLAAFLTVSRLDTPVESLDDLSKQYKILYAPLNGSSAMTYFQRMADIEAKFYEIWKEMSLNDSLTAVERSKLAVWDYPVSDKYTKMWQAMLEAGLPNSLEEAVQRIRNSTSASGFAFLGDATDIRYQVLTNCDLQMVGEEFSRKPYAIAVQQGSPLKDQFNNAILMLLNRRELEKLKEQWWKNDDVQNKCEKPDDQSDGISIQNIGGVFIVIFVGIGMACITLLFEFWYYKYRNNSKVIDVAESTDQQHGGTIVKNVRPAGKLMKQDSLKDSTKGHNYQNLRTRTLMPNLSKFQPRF
T3 sequence (A0A6E8W6Y5 1-657 partner): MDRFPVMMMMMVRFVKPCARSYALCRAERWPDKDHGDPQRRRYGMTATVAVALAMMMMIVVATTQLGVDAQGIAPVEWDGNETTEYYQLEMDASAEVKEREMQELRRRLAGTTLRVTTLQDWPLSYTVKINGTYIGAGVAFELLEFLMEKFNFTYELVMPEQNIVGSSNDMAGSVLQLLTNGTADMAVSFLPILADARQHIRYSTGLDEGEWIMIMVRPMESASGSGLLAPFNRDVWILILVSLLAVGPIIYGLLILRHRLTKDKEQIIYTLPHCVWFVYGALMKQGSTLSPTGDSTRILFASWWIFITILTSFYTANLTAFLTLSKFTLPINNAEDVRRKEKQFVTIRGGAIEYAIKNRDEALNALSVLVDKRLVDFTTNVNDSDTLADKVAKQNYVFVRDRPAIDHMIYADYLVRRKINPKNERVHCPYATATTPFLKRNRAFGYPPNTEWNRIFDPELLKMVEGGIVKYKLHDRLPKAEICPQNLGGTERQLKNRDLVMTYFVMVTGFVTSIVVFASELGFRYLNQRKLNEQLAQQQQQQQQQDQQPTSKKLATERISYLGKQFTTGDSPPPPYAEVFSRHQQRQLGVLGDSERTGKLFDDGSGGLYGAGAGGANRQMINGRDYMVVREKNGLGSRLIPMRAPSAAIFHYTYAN
The assay is described as above.

For assay [2], the target named is T1, AgIR75k. The assay can be described thus: two-electrode voltage clamp, Xenopus oocytes, […] single concentration.

On AgIR75k [1], `CCCCCCCCC(=O)O` [nonanoic acid] had an EC50 of 35 µM.
For the compound `C1CCNC1` [pyrrolidine], the EC50 on AgIR41c stood at 3.4 µM; on AgIR41a, 110 µM.
For the compound `CCCCCCCC(=O)O` [octanoic acid], the “two-electrode voltage clamp, Xenopus oocytes, 10^-4 M single concentration” value at AgIR75k [2] is “octanoic and nonanoic acids elicited the greatest inward currents”.

The values are drawn from PMC5220300, “Variant Ionotropic Receptors in the Malaria Vector Mosquito Anopheles gambiae Tuned to Amines and Carboxylic Acids” (Scientific Reports, 2017).
